Data on 28 compounds can be found in PubChem BioAssay AID651837 (Sanford-Burnham Center for Chemical Genomics, 2012).

The IC50 is the midpoint of a concentration-inhibition curve.

Calls of active or inactive are those of the source.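 Rule for the calls: active = compounds whose fitted half-inhibition dose is 9.7 micromolar or lower; inactive = the rest.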 Where only a bound is given, the exact number is not on record here.

In the assay the test system is Sufu-KO-LIGHT mouse cells, Gli-luciferase reporter luminescence. The assay can be described thus: antagonism of Gli-driven luciferase signal in Sufu-null cells – Sufu-KO-LIGHT mouse cells, luminescence, set 2, SAR follow-up (AID 651837).

Consider `O=C(Nc1cc(NCC2CCCO2)ncn1)c1ccccc1` (stereo not drawn), for which the IC50 was > 9.7 µM (inactive).

For `CCOc1ccc(S(=O)(=O)NCc2ccncc2)cc1NC(=O)c1ccccc1`, the 50% inhibitory concentration (IC50) is 3.4 µM.

Turning to `O=C(Nc1cc(N2CCSCC2)ncn1)c1ccccc1`, the IC50 is > 9.7 µM (inactive).

As to `CCOc1ccc(-c2nc(CSCC(=O)NC3CC3)c(C)o2)cc1`, the IC50 is 0.027 µM.

Turning to `CCC(C)Nc1cc(NC(=O)c2ccccc2)ncn1` (stereo not drawn), the IC50 is > 9.7 µM (inactive).

Turning to `O=C(Nc1cc(N2CCCCC2)ncn1)c1ccccc1Cl`, the IC50 was > 9.7 µM (inactive).

On to `O=C(Nc1cc(N2CCNCC2)ncn1)c1ccccc1`, for which the IC50 is > 9.7 µM (inactive).

For `CC(C)CNc1cc(NC(=O)c2ccccc2)ncn1`, the IC50 is > 9.7 µM (inactive).

For the compound `O=C(Nc1cc(N2CCCCC2)ncn1)c1ccco1`, the IC50 is > 9.7 µM (inactive).

For the compound `Cc1ccc(C(=O)Nc2cc(N3CCCCC3)ncn2)cc1`, the IC50 was > 9.7 µM (inactive).

For the compound `CC(C)(C)OC(=O)N1CCN(c2cc(NC(=O)c3ccccc3)ncn2)CC1`, the IC50 was > 9.7 µM (inactive).

As for `N#Cc1ccc(C(=O)Nc2cc(N3CCCCC3)ncn2)cc1`, the IC50 is > 9.7 µM (inactive).

Regarding `O=C(Nc1cc(N2CCOCC2)ncn1)c1ccccc1`, the IC50 was > 9.7 µM (inactive).

As to `CC(C)Nc1cc(NC(=O)c2ccccc2)ncn1`, the IC50 was > 9.7 µM (inactive).

Turning to `O=C(Nc1cc(N2CCCCC2)ncn1)c1ccccc1C(F)(F)F`, the IC50 is > 9.7 µM (inactive).

Turning to `CN1CCN(c2cc(NC(=O)c3ccccc3)ncn2)CC1`, the IC50 is > 9.7 µM (inactive).

In the case of `N#Cc1cccc(C(=O)Nc2cc(N3CCCCC3)ncn2)c1`, the IC50 is > 9.7 µM (inactive).

Take `COc1ccccc1C(=O)Nc1cc(N2CCCCC2)ncn1`: the IC50 is > 9.7 µM (inactive).

As for `CC1CCN(c2cc(NC(=O)c3ccccc3)ncn2)CC1`, the IC50 was 0.024 µM.

`CCCCN(C)c1cc(NC(=O)c2ccccc2)ncn1`: the IC50 is > 9.7 µM (inactive).

Consider `O=C(Nc1cc(N2CCCCCC2)ncn1)c1ccccc1`, for which the IC50 is 0.035 µM.

As to `O=C(Nc1cc(N2CCCCC2)ncn1)c1ccccc1`, the IC50 was 0.023 µM.

`CC1CCCCN1c1cc(NC(=O)c2ccccc2)ncn1` (stereo not drawn): the IC50 was > 9.7 µM (inactive).

As for `COc1cccc(C(=O)Nc2cc(N3CCCCC3)ncn2)c1`, the IC50 is > 9.7 µM (inactive).

`O=C(Nc1cc(N2CCCCC2)ncn1)c1ccc(Cl)cc1`: the IC50 was > 9.7 µM (inactive).

For `O=C(Nc1cc(N2CCCCC2)ncn1)c1ccc(C(F)(F)F)cc1`, the IC50 was > 9.7 µM (inactive).

As to `CC(C)(C)Nc1cc(NC(=O)c2ccccc2)ncn1`, the IC50 was > 9.7 µM (inactive).

Turning to `CCCCNc1cc(NC(=O)c2ccccc2)ncn1`, the IC50 was > 9.7 µM (inactive).
